Data: patent publication US8481732B2 (Incyte Corporation, priority 2009, dated 2013)

biological target: T1, histamine H4 receptor (Homo sapiens, UniProt Q9H3N8); test: H4 Membrane Binding Assay (3H-Histamine displacement); conditions: membranes of recombinant HEK293SFM cells, 10 nM 3H-Histamine, 1.5 hr at room temperature
T1 construct: expressed in transfected cells; host or cells: HEK293SFM cells (membrane preparation)
How it was run: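 Radioligand is [3H]-histamine; 1000× unlabeled ligand sets nonspecific binding. Receptor source: membrane pellets from HEK293SFM cells carrying human H4 or other histamine subtypes (human H1–H3, mouse H4), in 50 mM Tris-HCl pH 7.5. Filtration through PEI-treated GF/B filters, then scintillation counting.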

SMILES | IC50
CN1CCN(c2cc(-c3ccc4c(c3)CN(C(=O)Nc3nc5ccccc5s3)CC4)nc(N)n2)CC1 [Example 90, 7-[2-Amino-6-(4-methylpiperazin-1-yl)pyrimidin-4-yl]-N-1,3-benzothiazol-2-yl-3,4-dihydroisoquinoline-2(1H)-carboxamide] | 143 nM
CN1CCN(c2cc(-c3ccc4c(c3)CN(C(=O)N[C@@H]3c5ccccc5C[C@@H]3O)CC4)nc(N)n2)CC1 [Example 87, 7-[2-Amino-6-(4-methylpiperazin-1-yl)pyrimidin-4-yl]-N-[(1R,2S)-2-hydroxy-2,3-dihydro-1H-inden-1-yl]-3,4-dihydroisoquinoline-2(1H)-carboxamide] | 218 nM
CN1CCN(c2cc(-c3ccc4c(c3)CN(C(=O)Cc3ccc(Cl)nc3)CC4)nc(N)n2)CC1 [Example 108, 4-{2-[(6-Chloropyridin-3-yl)acetyl]-1,2,3,4-tetrahydroisoquinolin-7-yl}-6-(4-methylpiperazin-1-yl)pyrimidin-2-amine] | 33 nM
Cc1cc2c(cc1-c1cc(N3CCN(C)CC3)nc(N)n1)CN(C(=O)Nc1ccc(Cl)cc1)CC2 [Example 77, 7-[2-Amino-6-(4-methylpiperazin-1-yl)pyrimidin-4-yl]-N-(4-chlorophenyl)-6-methyl-3,4-dihydroisoquinoline-2(1H)-carboxamide] | 95 nM
CN1CCN(c2cc(-c3ccc4c(c3)CN(C(=O)NC3(C(F)(F)F)CC3)CC4)nc(N)n2)CC1 [Example 117, 7-[2-amino-6-(4-methylpiperazin-1-yl)pyrimidin-4-yl]-N-[1-(trifluoromethyl)cyclopropyl]-3,4-dihydroisoquinoline-2(1H)-carboxamide] | 183 nM
CN1CCN(c2nc(N)nc3cc(C(=O)N[C@@H](Cc4ccc(-c5cncc(C(F)(F)F)c5)cc4)C(=O)N(C)C)ccc23)CC1 [Example 161, 2-Amino-N-((1S)-2-(dimethylamino)-2-oxo-1-{4-[5-(trifluoromethyl)pyridin-3-yl]benzyl}ethyl)-4-(4-methylpiperazin-1-yl)quinazoline-7-carboxamide] | 31 nM
CN1CCN(c2nc(N)nc3cc(C(=O)NC(Cc4cccc(Oc5ccc(Cl)cc5C#N)c4)C(=O)N(C)C)ccc23)CC1 (stereo not drawn) [Example 172, 2-Amino-N-[1-[3-(4-chloro-2-cyanophenoxy)benzyl]-2-(dimethylamino)-2-oxoethyl]-4-(4-methylpiperazin-1-yl)quinazoline-7-carboxamide] | 26 nM
CN1CCN(c2nc(N)nc3cc(C(=O)N[C@@H](Cc4ccc(OC(=O)Nc5cccc(Cl)c5)cc4)C(=O)N(C)C)ccc23)CC1 [Example 165, 4-[(2S)-2-({[2-Amino-4-(4-methylpiperazin-1-yl)quinazolin-7-yl]carbonyl}amino)-3-(dimethylamino)-3-oxopropyl]phenyl (3-chlorophenyl)carbamate] | 16 nM
CN1CCN(c2cc(-c3ccc4c(c3)CN(C(=O)CC3(C#N)CCC3)CC4)nc(N)n2)CC1 [Example 120, 1-{2-[7-[2-Amino-6-(4-methylpiperazin-1-yl)pyrimidin-4-yl]-3,4-dihydroisoquinolin-2(1)-yl]-2-oxoethyl}cyclobutanecarbonitrile] | 34 nM
CC(C)Oc1ccc(NC(=O)N2CCc3ccc(-c4cc(N5CCN(C)CC5)nc(N)n4)cc3C2)cc1 [Example 92, 7-[2-Amino-6-(4-methylpiperazin-1-yl)pyrimidin-4-yl]-N-(4-isopropoxyphenyl)-3,4-dihydroisoquinoline-2(1H)-carboxamide] | 50 nM
CN1CCN(c2cc(-c3ccc4c(c3)CN(C(=O)OC3CCN(C(=O)C5CCCC5)CC3)CC4)nc(N)n2)CC1 [Example 67, 1-(Cyclopentylcarbonyl)piperidin-4-yl 7-[2-amino-6-(4-methylpiperazin-1-yl)pyrimidin-4-yl]-3,4-dihydroisoquinoline-2(1H)-carboxylate] | 110 nM
CN1CCN(c2nc(N)nc3cc(C(=O)N[C@@H](Cc4ccc(-c5ccc(F)c(C(F)(F)F)c5)cc4)C(=O)N(C)C)ccc23)CC1 [Example 159, 2-Amino-N-((1S)-2-(dimethylamino)-1-{[4′-fluoro-3′-(trifluoromethyl)biphenyl-4-yl]methyl}-2-oxoethyl)-4-(4-methylpiperazin-1-yl)quinazoline-7-carboxamide] | 26 nM
CCOC(=O)N1CCC(NC(=O)N2CCc3ccc(-c4cc(N5CCN(C)CC5)nc(N)n4)cc3C2)CC1 [Example 52, Ethyl 4-({[7-[2-amino-6-(4-methylpiperazin-1-yl)pyrimidin-4-yl]-3,4-dihydroisoquinolin-2(1H)-yl]carbonyl}amino)piperidine-1-carboxylate] | 130 nM
CN1CCN(c2nc(N)nc3cc(C(=O)NC(Cc4cccc(OCc5ccc(OC(F)(F)F)cc5)c4)C(=O)N(C)C)ccc23)CC1 (stereo not drawn) [Example 177, 2-Amino-N-[2-(dimethylamino)-2-oxo-1-(3-{[4-(trifluoromethoxy)benzyl]oxy}benzyl)ethyl]-4-(4-methylpiperazin-1-yl)quinazoline-7-carboxamide] | 56 nM
CN1CCN(c2cc(-c3ccc4c(c3)CN(C(=O)COc3cccc(Cl)c3)CC4)nc(N)n2)CC1 [Example 66, 4-{2-[(3-Chlorophenoxy)acetyl]-1,2,3,4-tetrahydroisoquinolin-7-yl}-6-(4-methylpiperazin-1-yl)pyrimidin-2-amine] | 44 nM
CC(Cc1ccc(Oc2ccccc2)cc1)NC(=O)c1ccc2c(N3CCN(C)CC3)nc(N)nc2c1 (stereo not drawn) [Example 142, 2-Amino-N-[1-methyl-2-(4-phenoxyphenyl)ethyl]-4-(4-methylpiperazin-1-yl)quinazoline-7-carboxamide] | 34 nM
CN1CCN(c2cc(-c3ccc4c(c3)CN(C(=O)CC3CCCC3)CC4)nc(N)n2)CC1 [Example 41, 4-[2-(Cyclopentylacetyl)-1,2,3,4-tetrahydroisoquinolin-7-yl]-6-(4-methylpiperazin-1-yl)pyrimidin-2-amine] | 28 nM
CN1CCN(c2nc(N)nc3cc(C(=O)NCc4cccc(Oc5cc(C#N)ccn5)c4)ccc23)CC1 [Example 183, 2-Amino-N-{3-[(4-cyanopyridin-2-yl)oxy]benzyl}-4-(4-methylpiperazin-1-yl)quinazoline-7-carboxamide] | 65 nM

Now from value to molecule:

IC50 | SMILES
19.6 nM | CN1CCN(c2cc(-c3ccc4c(c3)CN(C(=O)Nc3cccc(Cl)c3)CC4)nc(N)n2)CC1 [Example 20, 7-[2-Amino-6-(4-methylpiperazin-1-yl)pyrimidin-4-yl]-N-(3-chlorophenyl)-3,4-dihydroisoquinoline-2(1H)-carboxamide]
24 nM | CN1CCN(c2cc(-c3ccc4c(c3)CN(C(=O)NC3CCCCC3)CC4)nc(N)n2)CC1 [Example 95, 7-[2-Amino-6-(4-methylpiperazin-1-yl)pyrimidin-4-yl]-N-cyclohexyl-3,4-dihydroisoquinoline-2(1H)-carboxamide]
14 nM | CC(NC(=O)c1ccc2c(N3CCN(C)CC3)nc(N)nc2c1)c1cccc(OCc2cccc(C#N)c2)c1 (stereo not drawn) [Example 201, 2-Amino-N-(1-{3-[(3-cyanobenzyl)oxy]phenyl}ethyl)-4-(4-methylpiperazin-1-yl)quinazoline-7-carboxamide]
24 nM | COc1cccc(COc2cccc3c2CCN(C(=O)c2ccc4c(N5CCN(C)CC5)nc(N)nc4c2)C3)c1 [Example 208, (2-Amino-4-(4-methylpiperazin-1-yl)quinazolin-7-yl)(5-(3-methoxybenzyloxy)-3,4-dihydroisoquinolin-2(1H)-yl)methanone]
19 nM | CN1CCN(c2cc(-c3ccc4c(c3)CN(C(=O)NC35CC6CC(CC(C6)C3)C5)CC4)nc(N)n2)CC1 [Example 59, N-1-Adamantyl-7-[2-amino-6-(4-methylpiperazin-1-yl)pyrimidin-4-yl]-3,4-dihydroisoquinoline-2(1H)-carboxamide]
9.3 nM | COC(=O)c1cccc(COc2ccc3c(c2)C(NC(=O)c2ccc4c(N5CCN(C)CC5)nc(N)nc4c2)CCC3)c1 (stereo not drawn) [Example 204, Methyl 3-((8-(2-amino-4-(4-methylpiperazin-1-yl)quinazoline-7-carboxamido)-5,6,7,8-tetrahydronaphthalen-2-yloxy)methyl)benzoate]
6.3 nM | CN1CCN(c2nc(N)nc3cc(C(=O)NCc4cccc(OCc5cccc(C#N)c5)c4)ccc23)CC1 [Example 192, 2-amino-N-(3-(3-cyanobenzyloxy)benzyl)-4-(4-methylpiperazin-1-yl)quinazoline-7-carboxamide]
9.6 nM | CN1CCN(c2nc(N)nc3cc(C(=O)NC(Cc4cccc(Oc5nsnc5Cl)c4)C(=O)N(C)C)ccc23)CC1 (stereo not drawn) [Example 168, 2-Amino-N-[1-{3-[(4-chloro-1,2,5-thiadiazol-3-yl)oxy]benzyl}-2-(dimethylamino)-2-oxoethyl]-4-(4-methylpiperazin-1-yl)quinazoline-7-carboxamide]
13 nM | CN1CCN(c2nc(N)nc3cc(C(=O)NCc4cccc(Oc5cnc6ccccc6n5)c4)ccc23)CC1 [Example 188, 2-Amino-4-(4-methylpiperazin-1-yl)-N-[3-(quinoxalin-2-yloxy)benzyl]quinazoline-7-carboxamide]
22 nM | CN1CCN(c2nc(N)nc3cc(C(=O)N[C@@H](Cc4ccc(-c5nc(C(F)(F)F)ccc5C#N)cc4)C(=O)N(C)C)ccc23)CC1 [Example 157, 2-Amino-N-[(1S)-1-{4-[3-cyano-6-(trifluoromethyl)pyridin-2-yl]benzyl}-2-(dimethylamino)-2-oxoethyl]-4-(4-methylpiperazin-1-yl)quinazoline-7-carboxamide]
9.5 nM | CCC(C)CC(=O)N1CCc2ccc(-c3cc(N4CCN(C)CC4)nc(N)n3)cc2C1 (stereo not drawn) [Example 111, 4-[2-(3-Methylpentanoyl)-1,2,3,4-tetrahydroisoquinolin-7-yl]-6-(4-methylpiperazin-1-yl)pyrimidin-2-amine]
16 nM | CN1CCN(c2nc(N)nc3cc(C(=O)NCc4cccc(Oc5nccc6ccccc56)c4)ccc23)CC1 [Example 181, 2-Amino-N-[3-(isoquinolin-1-yloxy)benzyl]-4-(4-methylpiperazin-1-yl)quinazoline-7-carboxamide]
